Experimental data as given in ChEMBL document CHEMBL5120920, “A Mitochondria-Targeted Phenylbutyric Acid Prodrug Confers Drastically Improved Anticancer Activities” (J Med Chem, 2022).
Calls of active or inactive are those of the source. The calls are words filed in the database; no cut-off is given here.

Legend:
A-375 [1] = assay: Cytotoxicity against human A-375 cells assessed as reduction in cell vaibility measured at 48 hrs in presence of BNPP by MTT assay; assay type: functional, cell-based; settings: A-375, 48 h
A-375 [2] = assay: Induction of mitochondrial membrane depolarization in human A-375 cells assessed as increase in JC-1 monomer at 10 uM incubated for 4 hrs by JC-1 staining based flow cytometry analysis; assay type: functional, cell-based
A-375 [3] = assay: Induction of apoptosis in human A-375 cells assessed as apoptotic cells at 10 uM measured after 48 hrs by Annexin V FITC/PI staining based flow cytometry analysis relative to control; assay type: functional
A-375 [4] = assay: Induction of cell cycle arrest in human A-375 cells assessed as accumulation at S phase at 5 uM incubated for 24 hrs by PI staining based flow cytometry analysis (reference value: 24.01 %); assay type: functional
A-375 [5] = assay: Induction of cell cycle arrest in human A-375 cells assessed as accumulation at G2 phase at 2.5 uM incubated for 24 hrs by PI staining based flow cytometry analysis (reference value: 7.92 %); assay type: functional

O=C(CCCCCCCCC[P+](c1ccc(C(F)(F)F)cc1)(c1ccc(C(F)(F)F)cc1)c1ccc(C(F)(F)F)cc1)NC(COC(=O)CCCc1ccccc1)(COC(=O)CCCc1ccccc1)COC(=O)CCCc1ccccc1.[Br-]
IC50 (A-375 [1]): 18.9 µM | Activity (A-375 [2]): Active | Activity (A-375 [3]): 50% | Activity (A-375 [4]): 15.46% | Activity (A-375 [5]): 8.58%
